Assay results reported in the supplement of paper PMC11451515.

Test system: SEM cells
Assay: cell viability relative to DMSO control; higher = less cytotoxic
Settings: 48 h
Procedure, shortened: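 Library compounds in DMSO were pin-dosed into 1536-well plates (5 μl) holding NOMO1 or SEM (500 cells/well) or P12-Ichikawa (1000 cells/well) leukemia cells, across an 11-point threefold series of 47 μM to 0.79 nM. Each cell line had been adapted for at least four passages in each medium. CellTiter-Glo One luminescence was read after 48 h at 37°C. Viability is the per-plate percentage relative to DMSO wells, with cell-free wells as background.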

[1] = HPLM + 10% dialyzed FBS, 0.000781 µM
[2] = HPLM + 10% dialyzed FBS, 0.00234 µM
[3] = HPLM + 10% dialyzed FBS, 0.00702 µM
[4] = HPLM + 10% dialyzed FBS, 0.0211 µM
[5] = HPLM + 10% dialyzed FBS, 0.0632 µM
[6] = HPLM + 10% dialyzed FBS, 0.19 µM
[7] = HPLM + 10% dialyzed FBS, 0.569 µM
[8] = HPLM + 10% dialyzed FBS, 1.71 µM
[9] = HPLM + 10% dialyzed FBS, 5.12 µM
[10] = HPLM + 10% dialyzed FBS, 15.4 µM
[11] = HPLM + 10% dialyzed FBS, 46.1 µM
[12] = RPMI 5 mM glucose + 10% FBS, 0.000781 µM
[13] = RPMI 5 mM glucose + 10% FBS, 0.00234 µM
[14] = RPMI 5 mM glucose + 10% FBS, 0.00702 µM
[15] = RPMI 5 mM glucose + 10% FBS, 0.0211 µM
[16] = RPMI 5 mM glucose + 10% FBS, 0.0632 µM
[17] = RPMI 5 mM glucose + 10% FBS, 0.19 µM
[18] = RPMI 5 mM glucose + 10% FBS, 0.569 µM
[19] = RPMI 5 mM glucose + 10% FBS, 1.71 µM
[20] = RPMI 5 mM glucose + 10% FBS, 5.12 µM
[21] = RPMI 5 mM glucose + 10% FBS, 15.4 µM
[22] = RPMI 5 mM glucose + 10% FBS, 46.1 µM
[23] = RPMI 5 mM glucose + 10% dialyzed FBS, 0.000781 µM
[24] = RPMI 5 mM glucose + 10% dialyzed FBS, 0.00234 µM
[25] = RPMI 5 mM glucose + 10% dialyzed FBS, 0.00702 µM
[26] = RPMI 5 mM glucose + 10% dialyzed FBS, 0.0211 µM
[27] = RPMI 5 mM glucose + 10% dialyzed FBS, 0.0632 µM
[28] = RPMI 5 mM glucose + 10% dialyzed FBS, 0.19 µM
[29] = RPMI 5 mM glucose + 10% dialyzed FBS, 0.569 µM
[30] = RPMI 5 mM glucose + 10% dialyzed FBS, 1.71 µM
[31] = RPMI 5 mM glucose + 10% dialyzed FBS, 5.12 µM
[32] = RPMI 5 mM glucose + 10% dialyzed FBS, 15.4 µM
[33] = RPMI 5 mM glucose + 10% dialyzed FBS, 46.1 µM

Structure (SMILES) | cell viability [1] | cell viability [2] | cell viability [3] | cell viability [4] | cell viability [5] | cell viability [6] | cell viability [7] | cell viability [8] | cell viability [9] | cell viability [10] | cell viability [11] | cell viability [12] | cell viability [13] | cell viability [14] | cell viability [15] | cell viability [16] | cell viability [17] | cell viability [18] | cell viability [19] | cell viability [20] | cell viability [21] | cell viability [22] | cell viability [23] | cell viability [24] | cell viability [25] | cell viability [26] | cell viability [27] | cell viability [28] | cell viability [29] | cell viability [30] | cell viability [31] | cell viability [32] | cell viability [33]
O=C1N\C=N/C2=C1C=N[NH]2 | 74.3% | 77.4% | 74% | 95.1% | 70.6% | 90.7% | 77.2% | 22.6% | 93.8% | 94.5% | 41.9% | 70.2% | 79% | 69.4% | 90.4% | 62.5% | 91.7% | 81.2% | 20.2% | 81.6% | 88.8% | 71.8% | 74.8% | 86.2% | 81.4% | 104% | 79.1% | 99.2% | 82.1% | 32.9% | 96.1% | 86.7% | 47.4%
Oc1ccc([C@@H]2Oc3ccc(O)cc3[C@@H]3CCC[C@@H]32)cc1 | 71.9% | 90.5% | 91.8% | 92% | 80.2% | 90.6% | 38.7% | 81.9% | 89.3% | 31.4% | 21.6% | 60.6% | 103% | 97.5% | 103% | 106% | 111% | 44.4% | 103% | 104% | 40.3% | 18.1% | 80.4% | 94.9% | 98.4% | 97% | 96.1% | 104% | 102% | 103% | 94.9% | 29% | 18.4%
CC(C)[N+]1(C)C2CCC1CC(OC(=O)C(CO)c1ccccc1)C2.O.[Br-] (stereo not drawn) | 96% | 97.8% | 107% | 91.3% | 98.7% | 108% | 93.7% | 113% | 91.4% | 69.4% | 64.5% | 111% | 103% | 106% | 96.6% | 125% | 119% | 105% | 108% | 85.9% | 40.7% | 42.3% | 93.2% | 98.2% | 109% | 109% | 120% | 116% | 123% | 130% | 90.2% | 40.3% | 41.9%
CC(C)Cn1cnc2c(N)nc3ccccc3c21 | 98.8% | 107% | 106% | 105% | 110% | 110% | 104% | 93.5% | 102% | 91.8% | 77.1% | 104% | 124% | 103% | 115% | 104% | 111% | 104% | 94.1% | 111% | 105% | 72.1% | 105% | 118% | 117% | 116% | 108% | 105% | 120% | 113% | 93.8% | 90.6% | 92%
COc1cc2c(Nc3ccc(Cl)c(Cl)c3F)ncnc2cc1OC[C@@H]1C[C@@H]2CN(C)C[C@@H]2C1 | 88.5% | 78.5% | 86.2% | 91.6% | 94.5% | 94.5% | 94.4% | 91.5% | 87.8% | 40% | 3.92% |  |  |  |  |  |  |  |  |  |  |  | 88.8% | 91.6% | 110% | 103% | 121% | 91.1% | 103% | 95.5% | 93.7% | 74.7% | 3.96%
CC(C)(O)C(=O)Nc1ccc([N+](=O)[O-])c(C(F)(F)F)c1 | 98.6% | 107% | 115% | 108% | 116% | 113% | 124% | 123% | 117% | 123% | 103% | 92.2% | 97% | 91.9% | 91.3% | 101% | 97.6% | 103% | 114% | 104% | 123% | 82.8% | 112% | 114% | 112% | 120% | 112% | 118% | 135% | 123% | 131% | 128% | 126%
COc1ccc(C2(C#N)CCC(C(=O)O)CC2)cc1OC1CCCC1 (stereo not drawn) | 85.5% | 97.5% | 95.9% | 101% | 99.6% | 102% | 103% | 94.7% | 105% | 106% | 114% | 77.3% | 85.3% | 94.1% | 90.4% | 87.4% | 95.5% | 104% | 95.8% | 88.3% | 99.4% | 99.6% | 81.8% | 86.8% | 104% | 94.4% | 84.3% | 95.5% | 92.2% | 100% | 90.4% | 96.9% | 96.3%
Cc1nc(N)ncc1-c1nc(N2CCOCC2)c2sc(C(C)(C)O)cc2n1 | 97.7% | 114% | 118% | 118% | 113% | 40.1% | 14.2% | 9.64% | 8.13% | 7.64% | 5.09% | 92.7% | 85.3% | 78.2% | 74.2% | 13.6% | 11.7% | 9.07% | 7.73% | 6.03% | 5.59% | 4.95% | 115% | 130% | 112% | 122% | 79.5% | 17.6% | 13% | 9.39% | 7.85% | 6.82% | 5.41%
